We go through 22 compounds from ChEMBL document CHEMBL1275366, “Design, synthesis, and development of novel guaianolide-endoperoxides as potential antimalarial agents” (J Med Chem, 2010).

One may read the IC50 as the midpoint of a concentration-inhibition curve.

Data set [1] concerns Plasmodium falciparum. The data set is described as follows: Antiplasmodial activity against chloroquine-resistant Plasmodium falciparum W2 infected in human erythrocytes assessed as reduction in parasitaemia up to 10 uM after 48 hrs by FACS. It counts as functional, organism-based.
Data set [2] relates to Plasmodium falciparum. The data set is described as follows: Antiplasmodial activity against chloroquine-resistant Plasmodium falciparum W2 infected in human erythrocytes assessed as reduction in parasitaemia after 48 hrs by FACS. Particulars: W2, 48 h. It counts as functional, organism-based. (A flow cytometer gives signals particle by particle.)
Data set [3] deals with Vero. The data set is described as follows: Cytotoxicity against african green monkey Vero cells at 1200 ng/mL. The note with it: chlorocebus sabaeus. It counts as cell-based.
In data set [4] the test system is Vero. Kind of data set: Cytotoxicity against african green monkey Vero cells at => 5000 ng/mL. It counts as cell-based. Particulars: chlorocebus sabaeus.

Active and inactive are the calls of the source. The rule behind the calls is not given here.

With `CC(=O)OC[C@H](C)[C@]12C=C[C@](C)(OO1)[C@H]1C[C@H](O)[C@H](C)[C@H]1[C@H]2O`, the inhibition result in data set [1] is “inactive”. As for `CC(=O)OC[C@H](C)[C@]12C=C[C@](C)(OO1)[C@H]1C[C@H](O)[C@H](C)[C@H]1C2=O`, the inhibition entry in data set [1] is “inactive”.

`C[C@@H]1[C@H]2[C@H]3OC(=O)[C@H](C)[C@@]34C=C[C@](C)(OO4)[C@H]2C[C@@H]1O`: the IC50 in data set [2] turned out to be 1050 nM. For the compound `C[C@@H]1[C@H]2[C@@H](O)[C@@]3([C@@H](C)CO)C=C[C@](C)(OO3)[C@H]2C[C@@H]1O`, the inhibition entry in data set [1] was “inactive”. As for `CCO[C@@H]1O[C@@H]2[C@@H]3[C@@H](C)[C@@H](OCc4ccc(OC)cc4)C[C@@H]3[C@]3(C)CC[C@]2(OO3)[C@H]1C`, the concentration for half-maximal inhibition (IC50) in data set [2] was 3400 nM. `COc1ccc(CO[C@H]2C[C@H]3[C@@H]([C@H]2C)[C@@H](O)[C@@]2([C@@H](C)COC(C)=O)C=C[C@]3(C)OO2)cc1`: the inhibition entry in data set [1] is “inactive”. Turning to `C[C@H]1C(=O)C[C@H]2[C@@H]1[C@H]1OC(=O)[C@H](C)[C@@]13CC[C@]2(C)OO3`, in data set [2], the half-inhibitory concentration (IC50) is 270 nM. Turning to `C/C=C(/C)C(=O)O[C@H]1C(C)=C2[C@H]([C@@H]1OC(=O)CCCCCCC)[C@@](C)(OC(C)=O)C[C@H](OC(=O)CCC)[C@@]1(O)[C@H]2OC(=O)[C@@]1(C)O` [THAPSIGARGIN], the Activity result in data set [3] is listed as “Toxic”. In the case of `COc1ccc(CO[C@H]2C[C@H]3[C@@H]([C@H]2C)[C@@H](O)[C@@]2([C@@H](C)CO)C=C[C@]3(C)OO2)cc1`, the IC50 in data set [2] turned out to be 9110 nM.

As for `COc1ccc(CO[C@H]2C[C@H]3[C@@H]([C@H]2C)[C@H]2OC[C@H](C)[C@@]24CC[C@]3(C)OO4)cc1`, the IC50 in data set [2] stood at 7500 nM. For `CCO[C@H]1O[C@@H]2[C@@H]3[C@@H](C)[C@@H](OCc4ccc(OC)cc4)C[C@@H]3[C@]3(C)CC[C@]2(OO3)[C@H]1C`, in data set [4], the Activity entry is given as “Non-toxic”. Moreover, in data set [2], the IC50 was found to be 24 nM. As to `COc1ccc(CO[C@H]2C[C@H]3[C@@H]([C@H]2C)[C@H]2OC(O)[C@H](C)[C@@]24CC[C@]3(C)OO4)cc1` (some centres not stated), in data set [1], the inhibition result was “inactive”. Consider `CC(=O)OC[C@H](C)[C@]12C=C[C@](C)(OO1)[C@H]1CC(=O)[C@H](C)[C@H]1C2=O`, for which, in data set [2], the IC50 turned out to be 4600 nM. For `COc1ccc(CO[C@H]2C[C@H]3[C@@H]([C@H]2C)[C@H]2OC(=O)[C@H](C)[C@@]24CC[C@]3(C)OO4)cc1`, the Activity result in data set [4] was “Non-toxic”. Moreover, in data set [2], the IC50 amounted to 370 nM. Turning to `C[C@@H]1[C@H]2[C@H]3OC(=O)[C@H](C)[C@@]34CC[C@](C)(OO4)[C@H]2C[C@@H]1O`, the IC50 in data set [2] was 610 nM.

Consider `CCO[C@H]1O[C@@H]2[C@@H]3[C@@H](C)[C@@H](OCc4ccc(OC)cc4)C[C@@H]3[C@]3(C)C=C[C@]2(OO3)[C@H]1C`, for which the Activity result in data set [4] was “Non-toxic”. Besides, the half-inhibitory concentration (IC50) in data set [2] came to 13 nM. Consider `C[C@@H]1CC[C@H]2[C@@H](C)C(=O)O[C@@H]3O[C@@]4(C)CC[C@@H]1[C@]32OO4` [ARTEMISININ], for which the IC50 in data set [2] amounted to 5 nM. Turning to `COc1ccc(CO[C@H]2C[C@H]3[C@@H]([C@H]2C)[C@H]2OC(O)[C@H](C)[C@@]24C=C[C@]3(C)OO4)cc1` (some centres not stated), in data set [2], the IC50 turned out to be 1040 nM. As for `CCO[C@@H]1O[C@@H]2[C@@H]3[C@@H](C)[C@@H](OCc4ccc(OC)cc4)C[C@@H]3[C@]3(C)C=C[C@]2(OO3)[C@H]1C`, the Activity result in data set [4] is on record as “Non-toxic”. The IC50 in data set [2] came to 620 nM. Regarding `COc1ccc(CO[C@H]2C[C@H]3[C@@H]([C@H]2C)[C@H]2OC[C@H](C)[C@@]24C=C[C@]3(C)OO4)cc1`, the IC50 in data set [2] amounted to 230 nM. Regarding `COc1ccc(CO[C@H]2C[C@H]3[C@@H]([C@H]2C)[C@H]2OC(=O)[C@H](C)[C@@]24C=C[C@]3(C)OO4)cc1`, in data set [4], the Activity entry is “Non-toxic”. For the same compound, the half-inhibitory concentration (IC50) in data set [2] was found to be 290 nM. For the compound `C[C@@H]1[C@H]2[C@H]3OC[C@H](C)[C@@]34C=C[C@](C)(OO4)[C@H]2C[C@@H]1O`, the IC50 in data set [2] stood at 570 nM.
